Consider one substance from US20140309137A1, “GENE EXPRESSION PROFILES ASSOCIATED WITH LEAN PHENOTYPE AND USES THEREOF” (NESTEC SA, priority 2008, published 2014).

A short description of assay [1]: Body composition and body fat analysis after CLA, high protein diet or exercise treatment. In kind it is in vivo, Sprague Dawley rats. The conditions noted are these: rats. The text has this: (§1) Four-week old male Sprague Dawley rats were allowed to acclimate for two weeks on a control diet comprising AIN-93M (American Institute of Nutrition purified diet formula for maintenance of mature rodents). Rats were divided into four groups of 12. Group 1 was fed the control diet supplemented with CLA (Table 1). Group 2 was fed a modified diet increased in protein and decreased in carbohydrate (Table 1). Group 3 was fed the control diet, and was given the opportunity to engage in supplemental exercise. Specifically, a running wheel was placed in the cage of each rat in group 3, and daily use of the wheel was monitored by recording each turn of the wheel using a sensor connected to a computer. Group 4 was fed the control diet (Table 1).
(§2) Measurements were taken at 7 and 60 days after initiation of the feeding or exercise protocols. At the completion of the 60-day feeding protocol, all animals were sacrificed and analyses were performed.
Body composition analyses were performed on the test animals.

Assay [2] in a line: Biochemical analyses of blood (fasting glucose, glucagon, insulin). Type of assay: in vivo, Sprague Dawley rats. To be noted: for Fasting blood glucagon / Fasting blood glucose / Fasting blood insulin: rats.
Text: as §1, §2

[3] abbreviates: after 60 days, compared with the control diet and the exercise treatment.

On to conjugated linoleic acid [CLA], for which, in assay [1] (60 days, compared with the Control group), the Body fat result is recorded as “reduced body fat”. In assay [1] (following 60 days of treatment), the Retroperitoneal fat was determined as 10.07 g and the Total fat pad is reported as 31.80 g. Moreover, in assay [2] (setting [3]), the Blood glucose level entry is listed as “reduced blood glucose level” and the Blood insulin result is “reduced blood insulin”. In assay [2] (Day 7), this substance displayed a Fasting blood glucagon of 111.65 pg/mL, a Fasting blood glucose of 10.53 mmol/L and a Fasting blood insulin of 233.58 pmol/L. In assay [2] (Day 60), this substance displayed a Fasting blood glucagon of 120.77 pg/mL, a Fasting blood glucose of 11.08 mmol/L and a Fasting blood insulin of 172.66 pmol/L.
